Values after ≈ are worked out from the molar mass of the structure shown.
Legend:
[1] = Solubility in solvents; type: physicochemical; conditions: in methanol, benzene, chloroform and ethyl acetate
[2] = biological target: T1, acid sphingomyelinase originated from human placenta (Homo sapiens, UniProt P17405); experiment: Influence on human placenta-originated acid sphingomyelinase; type: biochemical; conditions: human placenta enzyme (Sigma), pH 5.0, 37° C., 30 minutes; read-out: concentration corresponding to 50% inhibition of acid sphingomyelinase (converted)
T1 construct: an acid sphingomyelinase originated from human placenta (a product of the firm Sigma) was used as the enzyme source; purchased Sigma; host or cells: human placenta
T1 sequence (P17405 47-631): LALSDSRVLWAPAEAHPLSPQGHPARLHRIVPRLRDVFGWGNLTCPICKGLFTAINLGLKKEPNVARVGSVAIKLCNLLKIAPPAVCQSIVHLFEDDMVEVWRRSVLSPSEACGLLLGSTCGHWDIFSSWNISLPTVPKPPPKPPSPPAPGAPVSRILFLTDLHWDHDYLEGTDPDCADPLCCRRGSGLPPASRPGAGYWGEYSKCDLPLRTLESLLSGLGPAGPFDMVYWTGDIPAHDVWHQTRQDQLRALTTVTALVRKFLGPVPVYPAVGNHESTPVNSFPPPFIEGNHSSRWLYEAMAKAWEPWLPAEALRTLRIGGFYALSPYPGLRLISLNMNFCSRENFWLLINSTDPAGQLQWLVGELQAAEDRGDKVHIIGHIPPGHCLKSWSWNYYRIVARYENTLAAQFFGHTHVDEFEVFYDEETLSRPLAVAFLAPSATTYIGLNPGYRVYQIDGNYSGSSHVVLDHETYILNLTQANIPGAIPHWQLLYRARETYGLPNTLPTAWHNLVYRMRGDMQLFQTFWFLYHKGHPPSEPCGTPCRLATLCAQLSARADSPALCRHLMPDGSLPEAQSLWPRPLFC
Protocol: The assessment of influence of the substances on human placenta-originated acidic sphingomyelinase was performed in accordance with the method of Jones et al [Biochem. Journal, 195, 373-382 (1981)] with partial modification.
Thus, an acid sphingomyelinase originated from human placenta (a product of the firm Sigma) was used as the enzyme source and thereto were added 250 mM of sodium acetate buffer solution (pH 5.0), 0.1% of NP-40 (of the firm Sigma), 25 μM [N-methyl-^3H]-sphingomyelin (0.006 μCi) and various concentrations of the substance, and the mixture was filled up to a total volume of 50 μl. After the reaction at 37° C. for 30 minutes, 200 μl of chloroform/methanol mixture (1/2 volume ratio) was added to the reaction mixture to separate the reaction product [^3H]-phosphocholine from the starting material [^3H]-sphingomyelin. The supernatant layer was taken up into a 50 μl vial. The amount of [^3H]-phosphocholine was quantitatively determined by a liquid scintillation counter to estimate the acid sphingomyelinase activity.

[3] = Acidic or alkaline nature; type: physicochemical
[4] = biological target: diacylglycerol:acyltransferase; experiment: Inhibitory action to rat-originated diacylglycerol:acyltransferase (rat liver microsomal fraction); type: biochemical; conditions: 23° C., 15 minutes
Protocol: The activity of diacylglycerol:acyltransferase was determined by the modified method of Mayorek and Bar-Tana [J. Biol. Chem., 260, 6528-6532 (1985)].
Thus, a microsomal fraction prepared from rat liver was used as the enzyme source. To a 175 mM Tris-HCl buffer (pH 8.0) containing 8 mM of MgCl2, 1 mg/ml of bovine, serum albumin and 2.5 mM of diisopropyl fluorophosphate, there were added 0.75 mM of dioleoylglycerol and 30 μM of [1-^14C]-palmitoyl-CoA (0.02 μCi) and the total volume was adjusted to 200 μl, whereupon the enzymatic reaction mixture was incubated at 23° C. for 15 minutes. The total lipids were extracted with chloroform/methanol mixture and each lipid was separated by a TLC (with Kieselgel GF254 and a developer of petroleum ether/diethyl ether/acetic acid of 80/20/1), followed by determination of the radioactivity of the triacylglycerol fraction using RADIOSCANNER (of the firm AMBIS System Inc.) to determine the diacylglycerol:acyltransferase activity.

[5] = system: triacylglycerol formation in Raji cell originated from human Burkitt lymphoma; experiment: Inhibitory action to formation of triacylglycerol in human-originated cells (Raji cell); type: cell-based; conditions: 0.5 h, [1-14C]-oleic acid, 37° C., 30 minutes, read-out: drug concentration corresponding to 50% inhibition of triacylglycerol formation
Protocol: The assessment of influence of the substances on the triacylglycerol formation was performed in accordance with the method of Tomoda et al [J. Biol. Chem., 266, 4214-4219 (1991)] using human-originated cells (Raji cell originated from human Burkitt lymphoma).
A Raji cell dispersion of 2.7×10^6 cells per milliliter containing 0.36 nM [1-^14C]-oleic acid (0.02 μCi) in the presence or absence of the; substance was filled up to a total volume 200 μl, whereupon the reaction was caused at 37° C. for 30 minutes. The total lipids were extracted with chloroform/methanol (2/1) mixture. The subsequent procedures were carried out in the same manner as in the above experiment (1) “inhibitive action to rat-originated diacylglycerol-acyltransferase”.
The calculation of the drug concentration corresponding to 50% inhibition of triacylglycerol formation gives the values of 10 μg/ml for the KF-1040 substance A and 10 μg/ml for the KF-1040 substance B.

Solubility in solvents [1] | IC50 [2] [µM] | Acidic or alkaline nature [3] | drug concentration corresponding to 50% inhibition of diacylglycerol:acyltransferase [4] [µg/mL] | IC50 [5] [µg/mL] | SMILES
solule in methanol, benzene, chloroform | 61.8 | neutral | 16 | 10 (≈ 12.9 µM) | CCC(C)CC(C)CC(C)C(OC1OC(CO)C(O)C(O)C1O)C(C)C=C(C)C(O)C(C)C=C(C)C(O)C(C)C=C(C)C(=O)OCC(O)C(O)C(O)CO (stereo not shown) [KF-1040 substance A]
soluble in methanol, benzene, chloroform | 29.3 | neutral | 9.0 | 10 (≈ 12.2 µM) | CCC(C)CC(C)CC(C)C(OC1OC(COC(C)=O)C(O)C(O)C1O)C(C)C=C(C)C(O)C(C)C=C(C)C(O)C(C)C=C(C)C(=O)OCC(O)C(O)C(O)CO (stereo not shown) [KF-1040 substance B]
